Data as given in patent US20250049660A1, “ENOL ETHER PROPERFUME” (FIRMENICH SA, priority 2021, published 2025).

Assay: Acid-catalyzed hydrolysis of enol ethers in THF/1 M HCl
Format: physicochemical
Settings: THF/1M HCl (80:20 v/v), room temperature; for Hydrolysis of enol ethers, percent remaining, initial: initial (time zero)
Procedure: The acid-catalyzed hydrolysis of Compounds 1, 2, 3 and 25 were measured and compared to the hydrolysis of enol ethers report in WO2019243501. Each enol ether was dissolved in a 4:1 THF/1 M HCl mixture and the percent remaining over time measured relative to an internal standard.
Into a 15 mL vial were added 125 mg of enol ether, 60 mg of hexadecane and 10 mL of THE (purged with N2 and containing 2500 ppm of BHT). After mixing, 2 mL of this solution were removed with a volumetric pipet and used to obtain the time zero measurement. 2 mL of 1 M HCl were mixed with the remaining 8 mL of the THF solution. This mixture was divided into 5 mL vials (1 mL per vial). The vials were gently topped with nitrogen and fitted with screw caps around which parafilm was wrapped. The vials were stored at room temperature until analyzed. For analyses, 2 mL of ethyl acetate was added to a vial and mixed. After phase separation, the top phase was collected and washed with saturated sodium carbonate (1 mL). Samples of the organic phase were analyzed by GC-FID. For the time zero sample, 0.5 mL of deionized water was added to the 2 mL taken from the original THE solution. 1 mL of this solution was added to a 5 mL vial and diluted with 2 mL of ethyl acetate and mixed. The top phase was collected and washed with saturated sodium carbonate (1 mL). The top phase then was analyzed by GC-FID. The percent of enol ether remaining was determined by dividing the peak area ratio of the enol ether to internal standard by the ratio measured at time zero.

Hydrolysis of enol ethers, percent remaining, 1 d	Hydrolysis of enol ethers, percent remaining, 2 d	Hydrolysis of enol ethers, percent remaining, 3 d	Hydrolysis of enol ethers, percent remaining, 7 d	Hydrolysis of enol ethers, percent remaining, initial	Hydrolysis of enol ethers, percent remaining, 5 h	SMILES
89.1%	80.2%	72.4%	52.5%	100%		CC/C=C\CCOC=Cc1ccc(OC)cc1 [1-(2-(((Z)-hex-3-en-1-yl)oxy)vinyl)-4-methoxybenzene, reference compound]
		79.5%	57.3%	100%		CC/C=C\CCOC=Cc1ccccc1 [(2-(((Z)-hex-3-en-1-yl)oxy)vinyl)benzene, reference compound]
95%	90%	83.7%	66.4%	100%		C(=Cc1ccccc1)OCCc1ccccc1 [(2-phenethoxyvinyl)benzene, reference compound]
4.6%	0%	0%	0%	100%	35.6%	CCCCCCCCCC(C)C=COCCc1ccccc1 (stereo not shown) [Compound 25, (2-((3-methyldodec-1-en-1-yl)oxy)ethyl)benzene]

The remaining lines, values behind:

SMILES	Hydrolysis of enol ethers, percent remaining, 1 d	Hydrolysis of enol ethers, percent remaining, 2 d	Hydrolysis of enol ethers, percent remaining, 3 d	Hydrolysis of enol ethers, percent remaining, 7 d	Hydrolysis of enol ethers, percent remaining, initial	Hydrolysis of enol ethers, percent remaining, 5 h
CCCCCC(CC)OC=Cc1ccccc1 (stereo not shown) [(2-(octan-3-yloxy)vinyl)benzene, reference compound]	84.9%	72.0%	61.7%	33.6%	100%	
CCCCCCCCCCC=COCCc1ccccc1 [Compound 1, (2-(dodec-1-en-1-yloxy)ethyl)benzene]	0%	0%	0%	0%	100%	12.8%
CCCCCCCCCCCC=COCCc1ccccc1 [Compound 2, (2-(tridec-1-en-1-yloxy)ethyl)benzene]	0%	0%	0%	0%	100%	16.3%
C=CCCCCCCCC=COCCc1ccccc1 [Compound 3, (2-(undeca-1,10-dien-1-yloxy)ethyl)benzene]	0%	0%	0%	0%	100%	19.9%
CC/C=C\CCOC=CC(C)CCCCCCCCC (stereo not shown) [Compound 27, 1-(((Z)-hex-3-en-1-yl)oxy)-3-methyldodec-1-ene]					100%	29.8%
CCCCCCCCCC(C)C=COC(CC)CCCCC (stereo not shown) [Compound 29, 3-methyl-1-(octan-3-yloxy)dodec-1-ene]					100%	3.7%
